“Also recorded” adds a separate entry of the source. Where two headings read alike, the source gives them in different places. Residues, ends and D or L forms follow the SMILES beside them.
Experiments:
[1] = CellTiter-Glo Luminescent Cell Viability Assay; type: cell-based, human; conditions: human, CLL cells from a patient, DASA 100 μM, read-out: Viable cells [DASA]
colorectal cancer cells = assay: Crystal violet cytotoxicity assay, cell lines not given; type: cell-based
Method: (§1) Human colon carcinoma cell lines SW480, HCT116, HT29 and Caco2, the human glioblastoma cell line U251MG and the Natural killer cell line NK-92 Cl were purchased from ATCC. Cell lines were regularly tested for contamination by multiplex PCR performed in the Genomics and Proteomics Core Facility 2 (DKFZ, Heidelberg, Germany). For experiments, cells were cultured for no more than 10 passages. Rho zero cells were generated as described earlier 1. (Gdynia, G. et al. Danger signaling protein HMGB1 induces a distinct form of cell death accompanied by formation of giant mitochondria. Cancer research 70, 8558-8568). Cells used in the experiments were cultured in RPMI (#1640, colon carcinomas, NK cells) or DMEM high glucose (#41965-039, glioblastoma cells) medium. Rho zero cells were generated as described earlier (Gdynia, G. et al. ibd.). Briefly, cells were cultured in RPMI medium (10% FCS, 1% P/S) supplemented with 250 ng/ml ethidiumbromide, 50 μg/ml L-pyruvate and 5 mg/ml uridine over a period of 12 weeks. For cytotoxicity measurements, cells were cultured in 96-well plates, treated with recombinant human HMGB1 protein (Sigma-Aldrich®), glycyrrhizinic acid ((3β, 18α)-30-hydroxy-11, 30-dioxoolean-12-en-3-yl 2-O-β-D-glucopyranuronosyl-β-D-glucopyranosiduronic acid)) (Sigma-Aldrich®), 10 μM (non-toxic) or 100 μM (cytotoxic) P-M2tide (aa sequence: GGAVDDDpYAQFANGG; #BML-P239-0001; Enzo Life Sciences) or 100 μM ML-265 (Cayman Chemical), then cell viability was assessed by crystal violet staining (Gillies, R. J., Didier, N. & Denton, M. Determination of cell number in monolayer cultures. Analytical biochemistry 159, 109-113 (1986)). Malic enzyme 1 knock-down was performed with 40 nM siRNA using lipofectamine in 6-well plates followed by treatment with 80 nM HMGB1 for 72 h. Sequences of siRNA were: ME1, 5′-[…]-3′ and scrambled control 5′-CCUGCAGUACUUCAAGCGGtt-3′. PKM2 siRNA was from Santa Cruz. A nonspecific siRNA served as control (Dharmacon, Schwerte, Germany). For overexpression of PKM2 or ME1, cells were transfected with pCMV-PKM2 (Sino Biological Inc., Beijing, China) or pCMV-ME1 (OriGene, Rockville, Md., USA) using Lipofectamine 2000. For cytotoxicity measurements confluent cells were cultured in 96-well plates if not otherwise indicated. Cytotoxic activity of supernatants from stimulated NK cells was assessed in 96-well plates for 3 days with RPMI medium as reference. Recombinant human HMGB1 (10 ng, Sigma) suited as positive control. For mass isotopomer assays, cells were cultured in glucose- or glutamine-free medium supplemented with either uniformly labeled (U)-13C-D-glucose or U-13C-glutamine (Sigma-Aldrich®).

PKM2 = PKM2 (Homo sapiens, UniProt P14618); assay: Immunoprecipitation with 125I-labeled HMGB1 (PKM2 pull-down); type: binding; design: endogenous in cells; conditions: P-M2tide at non-cytotoxic concentrations
Method: FIG. 6: Co-administration of HMGB1 and an activator (A left and right) or an inhibitor (B) of PMK2 has a synergistic cytotoxic effect, as determined in the crystal violet cytotoxicity assay (assays were performed in duplicate, * indicates p<0.05). (C) Immunoprecipitation with I125-labeled HMGB1 (PKM2 pull-down). HMGB1, like phosphotyrosine-peptides, binds close to the allosteric center of PKM2, leading to a competition in binding.

CLL cells = assay: CellTiter-Glo Luminescent Cell Viability Assay; type: cell-based, human
[2] = system: HCT116 colorectal cancer cells; assay: Crystal violet cytotoxicity assay; type: cell-based
Method: as §1

HT29 cells = assay: Crystal violet cytotoxicity assay; type: cell-based; conditions: 72 h
Method: as §1

[3] = system: SW480 colorectal cancer cells; assay: Crystal violet cytotoxicity assay; type: cell-based
Method: as §1

tetrameric PK M2 = biological target: T1, tetrameric PK M2 (Homo sapiens, UniProt P14618); assay: Pyruvate kinase enzymatic assay in cytosolic fractions / homogenates (low PEP); type: cell-based; conditions: glycyrrhizin 200 μM
T1 construct: Activities of glycolytic enzymes measured in cytosolic fractions after treatment with HMGB1; endogenous in cells; host or cells: SW480, HCT116, HT29 cytosolic fractions; homogenates of human colon cancer tissue slices
Method: Enzymatic activities of respiratory chain complexes, glycolytic proteins and malic enzyme were determined in subcellular fractions as previously described (Kaminski, M. M. et al. T cell activation is driven by an ADP-dependent glucokinase linking enhanced glycolysis with mitochondrial reactive oxygen species generation. Cell reports 2, 1300-1315 (2012).Bruncko, M. et al. Naphthamidine urokinase plasminogen activator inhibitors with improved pharmacokinetic properties. Bioorganic & medicinal chemistry letters 15, 93-98, (2005)) using a computer-tuneable spectrophotometer (Spectramax Plus Microplate Reader, Molecular Devices; Sunny Vale, Calif., USA) operating in the dual wavelength mode; samples were analyzed in temperature-controlled 96-well plates in a final volume of 300 μl. Activity of ME1 was recorded in presence of increasing amounts of malic acid (0.02, 0.05, 0.1, 0.2, 0.5, 1, 2.5 mM). Vmax and Km were calculated using a Hanes-Woolf plot. In the presence of high substrate levels the Km for malic acid was similar in all three tested cell lines (SW480: 0.32 mM, HCT116: 0.30 mM, HT29: 0.31 mM). Vmax (mU/mg protein) values were 3.38 (SW480, 0.5-5.0 mM malic acid), 5.77 (HCT116, 0.5-5.0 mM malic acid) and 3.68 (HT29, 0.5-5.0 mM malic acid) and 1.68 (SW480, 0.02-0.2 mM malic acid), 3.24 (HCT116, 0.02-0.2 mM malic acid) and 1.89 (HT29, 0.02-0.2 mM malic acid). Two isoforms of ME1, mitochondrial (NAD(P)+dependent) ME3 and mitochondrial (NAD+dependent) ME2, had very low or no detectable activities (data not shown).

[4] = system: glucose flux (glycolysis); assay: Glycolysis: conversion of 5-3H-Glucose to 3H2O; type: cell-based, human; conditions: SW480 cells; co-treatment, glycyrrhizin 200 μM
Method: Lactate derived from the metabolism of ^13C6-D-glucose or ^13C5-glutamine was determined by comparing the CH3 group intensities of labeled and non-labeled lactate in NMR. Mitochondrial respiration was measured using an Oroboros 1 oxygraph system. Glycolysis was measured by monitoring the conversion of 5-^3H-Glucose to ^3H2O. Incorporation of ^14C into RNA ribose from U-^14C-labelled glucose was taken as glucose utilization in the pentose phosphate shunt. Enzymatic activities were determined in subcellular fractions as previously described^24.

[5] = glycyrrhizin as inhibitor of HMGB1
[6] = supernatants of anti-Nkp30 stimulated blood NK cells, glycyrrhizin 200 μM, 72 h
[7] = 72 h, NK cell derived HMGB1 approx. 16 nM, recombinant human HMGB1 80 nM

Chain of PKM2 (P14618 whole entry): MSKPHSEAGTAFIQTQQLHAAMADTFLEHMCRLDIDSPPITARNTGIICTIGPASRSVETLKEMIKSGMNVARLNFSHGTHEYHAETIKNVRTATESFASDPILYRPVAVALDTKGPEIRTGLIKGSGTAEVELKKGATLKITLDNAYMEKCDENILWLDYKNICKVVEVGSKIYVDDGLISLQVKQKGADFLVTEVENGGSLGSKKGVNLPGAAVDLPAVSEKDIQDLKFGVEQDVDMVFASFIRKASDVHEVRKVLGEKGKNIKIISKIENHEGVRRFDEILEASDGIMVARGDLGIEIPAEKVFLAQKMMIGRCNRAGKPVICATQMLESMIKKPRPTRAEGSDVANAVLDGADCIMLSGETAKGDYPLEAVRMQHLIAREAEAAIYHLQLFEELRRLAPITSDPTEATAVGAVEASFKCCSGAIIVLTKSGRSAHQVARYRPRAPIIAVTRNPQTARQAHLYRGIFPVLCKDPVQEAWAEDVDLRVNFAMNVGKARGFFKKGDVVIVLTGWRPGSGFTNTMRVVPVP
T1 sequence (P14618 2-531): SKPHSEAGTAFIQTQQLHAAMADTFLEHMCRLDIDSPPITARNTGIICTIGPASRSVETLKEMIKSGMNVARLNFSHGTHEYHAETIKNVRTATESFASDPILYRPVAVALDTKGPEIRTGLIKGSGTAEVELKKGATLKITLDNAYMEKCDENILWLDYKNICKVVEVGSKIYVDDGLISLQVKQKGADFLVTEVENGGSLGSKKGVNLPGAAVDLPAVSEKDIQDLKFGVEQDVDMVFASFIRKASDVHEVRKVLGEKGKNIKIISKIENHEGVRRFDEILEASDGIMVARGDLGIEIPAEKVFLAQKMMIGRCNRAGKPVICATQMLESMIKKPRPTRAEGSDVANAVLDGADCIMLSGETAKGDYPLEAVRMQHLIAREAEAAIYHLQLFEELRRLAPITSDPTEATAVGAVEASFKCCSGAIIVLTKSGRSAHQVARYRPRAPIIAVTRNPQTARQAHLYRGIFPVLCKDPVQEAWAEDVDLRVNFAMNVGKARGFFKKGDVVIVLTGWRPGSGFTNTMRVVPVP

O=S(=O)(c1ccc2c(c1)OCCO2)N1CCN(S(=O)(=O)c2c(F)cccc2F)CC1 [DASA, 1-(2,6-Difluorophenylsulfonyl)-4-(2,3-dihydrobenzo[b][1,4]dioxin-6-ylsulfonyl)piperazine]
viability at 100 μM ([1]; patient P0010, sample 13PB0501): 100%
viability at 100 μM ([1]; patient P0010, sample 14PB0132): 67%
viability at 100 μM ([1]; patient P0074, sample 14BP0079): 37%
viability at 100 μM ([1]; patient P0369, sample 13PB0555): 100%
viability at 100 μM ([1]; patient P0460, sample 14PB0471): 72%
viability at 100 μM ([1]; patient P0641, sample 13PB0500): 100%
viability at 100 μM ([1]; patient P0641, sample 13PB0649): 88%
viability at 100 μM ([1]; patient P0645, sample 13PB0473): 90%
viability at 100 μM ([1]; patient P0701, sample 14PB0451): 100%

[N-]=[N+]=CC(=O)CC[C@H](N)C(=O)O [L-DON, 6-diazo-5-oxo-L-norleucine]
cytotoxicity of glutaminolysis inhibition together with HMGB1 (colorectal cancer cells; L-DON 1 μM with HMGB1, glucose deprived and glucose supplemented medium): synergistic cytotoxicity

Cn1c2cc([S+](C)[O-])sc2c2cnn(Cc3cccc(N)c3)c(=O)c21 (stereo not shown) [ML-265, 6-(3-aminobenzyl)-4-methyl-2-(methylsulfinyl)-4,6-dihydro-5H-thieno[2′,3′:4,5]pyrrolo[2,3-d]pyridazin-5-one]
induction of cell death (colorectal cancer cells; 100 μM, 24 h): did not induce cytotoxicity; also recorded: not able to induce cell death
competition with binding of HMGB1 to PKM2 (PKM2): did not compete
competition with binding of HMGB1 to PKM2 (PKM2; listed as ML265): does not compete

CC(C)[C@H](NC(=O)[C@H](C)NC(=O)CNC(=O)CN)C(=O)N[C@@H](CC(=O)O)C(=O)N[C@@H](CC(=O)O)C(=O)N[C@@H](CC(=O)O)C(=O)N[C@@H](Cc1ccc(OP(=O)(O)O)cc1)C(=O)N[C@@H](C)C(=O)N[C@@H](CCC(N)=O)C(=O)N[C@@H](Cc1ccccc1)C(=O)N[C@@H](C)C(=O)N[C@@H](CC(N)=O)C(=O)NCC(=O)NCC(=O)O [P-M2tide, GGAVDDDpYAQFANGG] (HELM PEPTIDE1{G.G.A.V.D.D.D.[O=C([C@H](Cc1ccc(OP(=O)(O)O)cc1)N[*:1])[*:2]].A.Q.F.A.N.G.G}$$$$V2.0)
toxicity (colorectal cancer cells; 10 μM P-M2tide): non-toxic
toxicity (colorectal cancer cells; 100 μM P-M2tide): cytotoxic
Viable cells [PM2-tide] (CLL cells; patient P0010, sample 13PB0501, PM2-tide 100 μM, 250 µM): 100%
Viable cells [PM2-tide] (CLL cells; patient P0010, sample 14PB0132, PM2-tide 100 μM, 250 µM): 75%
Viable cells [PM2-tide] (CLL cells; patient P0074, sample 14BP0079, * responding to 100 μM PM2-tide): 46%*
Viable cells [PM2-tide] (CLL cells; patient P0369, sample 13PB0555, PM2-tide 100 μM, 250 µM): 100%
Viable cells [PM2-tide] (CLL cells; patient P0460, sample 14PB0471, * responding to 100 μM PM2-tide): 56%*
Viable cells [PM2-tide] (CLL cells; patient P0641, sample 13PB0500, PM2-tide 100 μM, 250 µM): 100%
Viable cells [PM2-tide] (CLL cells; patient P0641, sample 13PB0649, PM2-tide 100 μM, 250 µM): 93%
Viable cells [PM2-tide] (CLL cells; patient P0645, sample 13PB0473, PM2-tide 100 μM, 250 µM): 91%
Viable cells [PM2-tide] (CLL cells; patient P0701, sample 14PB0451, PM2-tide 100 μM, 250 µM): 100%

CC1(C)[C@@H](O[C@H]2O[C@H](C(=O)O)[C@@H](O)[C@H](O)[C@H]2O[C@@H]2O[C@H](C(=O)O)[C@@H](O)[C@H](O)[C@H]2O)CC[C@]2(C)[C@H]3C(=O)C=C4[C@@H]5C[C@@](C)(C(=O)O)CC[C@]5(C)CC[C@@]4(C)[C@]3(C)CC[C@@H]12 [glycyrrhizin, (3β, 18α)-30-hydroxy-11, 30-dioxoolean-12-en-3-yl 2-O-β-D-glucopyranuronosyl-β-D-glucopyranosiduronic acid, reference compound]
blocking of HMGB1 cytotoxic effects [2, 5]: significantly blocked
effect on NK cell-dependent cytotoxic effect [2, 6]: diminished
effect on NK cell-dependent cytotoxic effect (HT29 cells; supernatants of anti-Nkp30 stimulated blood NK cells, glycyrrhizin 200 μM): diminished
blocking of HMGB1 cytotoxic effects [3, 5]: significantly blocked
effect on NK cell-dependent cytotoxic effect [3, 6]: not changed
restoration of tetrameric PK M2 activity inhibited by NK cell supernatant (tetrameric PK M2): completely restored
reversal of HMGB1-induced metabolic shift [4]: partly reversed

CC[C@H]1/C=C/C=C/C[C@@H](C)[C@H](O)[C@@](C)(O)C(=O)[C@@H](C)[C@H](O)[C@@H](C)C(=O)[C@@H](C)[C@H](O)[C@@H](C)/C=C/C(=O)O[C@@H]2[C@H](C)[C@H](CC1)O[C@]1(CC[C@H](C)[C@H](C[C@@H](C)O)O1)[C@H]2C [oligomycin, reference compound]
cell death ([2]; oligomycin 10 ng/ml, 72 h): rapid cell death
cell death ([3]; oligomycin 10 ng/ml, 72 h): rapid cell death

HPLC-purified HMGB1: HPLC-purified HMGB1 from the supernatant of Nkp30 stimulated blood donor NK cells
cytotoxicity (colorectal cancer cells; 80 nM, 24 h, diluted in IgG1 control supernatant): substantial cytotoxicity

NK cell derived HMGB1: HMGB1 isolated from the cytosolic granules of the NK cell line NK-92 CI by HPLC (eluate #38)
cell death (cytotoxicity) [2, 7]: efficiently killed
side-by-side cytotoxicity versus recombinant HMGB1 (HT29 cells; 80 nM or 160 nM): higher cytotoxicity than recombinant HMGB1
cell death (cytotoxicity) [3, 7]: efficiently killed

From patent US11274132B2, “Combined preparations of PKM2 modulators and HMGB1” (Ruprecht-Karls-Universität Heidelberg, priority 2015, dated 2022)
